# Measurements taken from ChEMBL document CHEMBL6153025, “Multidrug-resistant bacteria quorum-sensing inhibitors: A particular focus on Pseudomonasaeruginosa” (Eur J Med Chem, 2025).
# System: Bacillus subtilis
# Assay: Antibacterial activity against Bacillus subtilis
# Assay type: functional
# Conditions: not given
row,SMILES,MIC
1,CCCCCCCCCCCC(=O)NN1C(=O)CN(c2ccccc2O)C1=O,> 512 µg/mL
2,O=C(CCCCCOc1cccc(F)c1)NN1C(=O)CN(c2ccccc2O)C1=O,> 512 µg/mL
3,O=C(CCCCCOc1ccc(Cl)cc1)NN1C(=O)CN(c2ccccc2O)C1=O,> 512 µg/mL

# System: Bacillus pumilus
# Assay: Antibacterial activity against Bacillus pumilus
# Assay type: functional
# Conditions: not given
row,SMILES,MIC
1,CCCCCCCCCCCC(=O)NN1C(=O)CN(c2ccccc2O)C1=O,> 512 µg/mL
2,O=C(CCCCCOc1cccc(F)c1)NN1C(=O)CN(c2ccccc2O)C1=O,> 512 µg/mL
3,O=C(CCCCCOc1ccc(Cl)cc1)NN1C(=O)CN(c2ccccc2O)C1=O,> 512 µg/mL

# System: Staphylococcus aureus
# Assay: Antibacterial activity against Methicillin-sensitive Staphylococcus aureus
# Assay type: functional
# Conditions: not given
row,SMILES,MIC
1,CCCCCCCCCCCC(=O)NN1C(=O)CN(c2ccccc2O)C1=O,> 512 µg/mL
2,O=C(CCCCCOc1cccc(F)c1)NN1C(=O)CN(c2ccccc2O)C1=O,> 512 µg/mL
3,O=C(CCCCCOc1ccc(Cl)cc1)NN1C(=O)CN(c2ccccc2O)C1=O,> 512 µg/mL

# System: Escherichia coli
# Assay: Antibacterial activity against Escherichia coli
# Assay type: functional
# Conditions: not given
row,SMILES,MIC
1,CCCCCCCCCCCC(=O)NN1C(=O)CN(c2ccccc2O)C1=O,> 512 µg/mL
2,O=C(CCCCCOc1cccc(F)c1)NN1C(=O)CN(c2ccccc2O)C1=O,> 512 µg/mL
3,O=C(CCCCCOc1ccc(Cl)cc1)NN1C(=O)CN(c2ccccc2O)C1=O,> 512 µg/mL

# System: Pseudomonas aeruginosa
# Assay: Antibacterial activity against Pseudomonas aeruginosa
# Assay type: functional
# Conditions: not given
row,SMILES,MIC
1,CCCCCCCCCCCC(=O)NN1C(=O)CN(c2ccccc2O)C1=O,> 512 µg/mL
2,O=C(CCCCCOc1cccc(F)c1)NN1C(=O)CN(c2ccccc2O)C1=O,> 512 µg/mL
3,O=C(CCCCCOc1ccc(Cl)cc1)NN1C(=O)CN(c2ccccc2O)C1=O,> 512 µg/mL

# System: Pseudomonas aeruginosa
# Assay: Anti-virulence effect in Pseudomonas aeruginosa PAO1 assessed as inhibition of rhamnolipid production at 10 uM relative to control
# Assay type: functional
# Parameters: scale not given: the % may be the effect or the level left
# Conditions: not given
row,SMILES,Activity
1,O=C(CCCCCOc1cccc(C(F)(F)F)c1)NNC(=O)Cn1c(=O)oc2ccccc21,2.53%
2,O=C(CCCCCOc1cccc(F)c1)NN1C(=O)CN(c2ccccc2O)C1=O,2.76%
3,CCCCCCCCC(=O)NNC(=O)Cn1c(=O)oc2ccccc21,6.34%
4,O=C(CCCCCOc1ccc(Cl)cc1)NN1C(=O)CN(c2ccccc2O)C1=O,2.76%
5,O=C(CCCCCOc1ccc(F)cc1)NNC(=O)Cn1c(=O)oc2ccccc21,2.53%
6,Cc1ccc(OCCCCCC(=O)NNC(=O)Cn2c(=O)oc3ccccc32)cc1,2.53%
7,O=C(CCCCCOc1ccc(C(F)(F)F)cc1)NNC(=O)Cn1c(=O)oc2ccccc21,2.53%

# Target: T1, Transcriptional activator protein LasR (Pseudomonas aeruginosa (strain ATCC 15692 / PAO1 / 1C / PRS 101 / LMG12228)) (UniProt P25084)
# T1 sequence (whole entry): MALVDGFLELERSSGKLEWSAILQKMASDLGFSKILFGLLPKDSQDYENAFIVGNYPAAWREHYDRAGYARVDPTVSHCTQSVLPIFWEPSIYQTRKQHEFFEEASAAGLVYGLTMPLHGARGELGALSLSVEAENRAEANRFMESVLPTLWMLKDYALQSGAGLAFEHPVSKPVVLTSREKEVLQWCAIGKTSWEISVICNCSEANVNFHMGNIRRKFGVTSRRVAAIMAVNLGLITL
# Assay: Inhibition of LasR-mediated quorum sensing system in Pseudomonas aeruginosa PAO1 at 128 ug/ml relative to control
# Conditions: dose 128.0 µg/ml
row,SMILES,inhibition
1,O=C(CN1CCOCC1)Oc1ccccc1[N+](=O)[O-],50.2%
2,O=C(OCCN1CCOCC1)c1cccc([N+](=O)[O-])c1,92.3%
3,O=C(CN1CCOCC1)Oc1ccc([N+](=O)[O-])cc1,82.3%
4,O=C(CC1CCC(F)CC1)Oc1cccc([N+](=O)[O-])c1 (stereo unspecified),50.2%
5,O=C(CN1CCSCC1)Oc1cccc([N+](=O)[O-])c1,90.2%
6,CN1CCN(CC(=O)Oc2cccc([N+](=O)[O-])c2)CC1,78.8%
7,O=C(CCN1CCOCC1)Oc1cccc([N+](=O)[O-])c1,78.8%
8,CC(C)(C)c1cccc(OC(=O)CN2CCOCC2)c1,50.2%
9,O=C(Oc1cccc([N+](=O)[O-])c1)C(=O)N1CCOCC1,50.2%
10,O=C(CN1CCOCC1)Oc1cccc([N+](=O)[O-])c1,61.6%

# System: not listed separately
# Assay: Inhibition of quorum sensing system in Pseudomonas aeruginosa PAO1 expressing lasB-gfp
# Conditions: not given
row,SMILES,IC50
1,O=c1c2cc([N+](=O)[O-])ccc2ncn1CC(O)COc1ccccc1 (stereo unspecified),600 nM
2,O=c1c2cc(Cl)cc(Cl)c2ncn1CC(O)COc1ccccc1 (stereo unspecified),600 nM
3,N#CCc1ccc(NCC(O)Cn2cnc3ccc(Cl)cc3c2=O)cc1 (stereo unspecified),3200 nM
4,O=c1c2cc(Br)ccc2ncn1CC(O)COc1ccccc1 (stereo unspecified),800 nM
5,O=c1c2cc(C(F)(F)F)ccc2ncn1CC(O)COc1ccccc1 (stereo unspecified),600 nM
6,O=c1c2cccc(Cl)c2ncn1CC(O)COc1ccccc1 (stereo unspecified),600 nM
7,N#CCc1ccc(OCC(O)Cn2cnc3ccc(Cl)cc3c2=O)cc1 (stereo unspecified),3200 nM
8,O=c1c2ccc(Cl)cc2ncn1CC(O)COc1ccccc1 (stereo unspecified),600 nM
9,O=c1c2cc(Cl)c(Cl)cc2ncn1CC(O)COc1ccccc1 (stereo unspecified),600 nM
10,O=c1c2c(Cl)cccc2ncn1CC(O)COc1ccccc1 (stereo unspecified),600 nM

# System: Pseudomonas aeruginosa
# Assay: Anti-virulence activity against Pseudomonas aeruginosa PAO1-L assessed as reduction in pyocyanin production at 10 uM incubated for 24 hrs by absorbance based analysis relative to control
# Assay type: functional
# Parameters: scale not given: the % may be the effect or the level left
# Conditions: not given
row,SMILES,Activity
1,CCCCCCCCSSc1nc2ccccc2c(=O)n1C1CC1,94%
2,CCCCCCSSc1nc2ccc(Cl)cc2c(=O)n1-c1ccccc1,94%
3,CCCCCCSSc1nc2ccccc2c(=O)[nH]1,94%
4,C=CCSSc1nc2ccccc2c(=O)n1-c1ccccc1,94%
5,CCCCSSc1nc2ccccc2c(=O)n1-c1ccccc1,94%
6,C=CCSSc1nc2ccc(Cl)cc2c(=O)n1-c1ccccc1,94%
7,CCCCSSc1nc2ccccc2c(=O)[nH]1,94%
8,CCCCCCCCSSc1nc2ccc(Cl)cc2c(=O)n1-c1ccccc1,94%
9,CCCCSSc1nc2cccc(Cl)c2c(=O)n1-c1ccccc1,94%
10,CCCCSSc1nc2ccccc2c(=O)n1C1CC1,94%
11,CCCCCCCCCc1nc2cc(Cl)ccc2c(=O)n1N,46%
12,C=CCSSc1nc2ccccc2s1,46%
13,CCCCCCCCSSc1nc2cccc(Cl)c2c(=O)n1-c1ccccc1,94%
14,CCCCCCSSc1nc2ccccc2c(=O)n1-c1ccccc1,94%
15,CCCCCCC1=NC(Cn2cnc3cc(Cl)ccc3c2=O)CS1 (stereo unspecified),46%
16,CCCCSSc1nc2ccc(Cl)cc2c(=O)n1-c1ccccc1,94%
17,CCCCCCCCSSc1nc2ccccc2c(=O)n1-c1ccccc1,94%
18,CCCCCCSSc1nc2ccccc2c(=O)n1C1CC1,94%
19,CCCCCCSSc1nc2cccc(Cl)c2c(=O)n1-c1ccccc1,94%

# System: Pseudomonas aeruginosa
# Assay: Antibiofilm activity against Pseudomonas aeruginosa PAO1 assessed as inhibition of biofilm formation at 32 ug/ml incubated for 8 hrs by crystal violet staining based assay relative to control
# Assay type: functional
# Parameters: scale not given: the % may be the effect or the level left
# Conditions: dose 32 µg/ml
row,SMILES,Activity
1,[O-][S+](Cc1ccc(C(F)(F)F)cc1)c1nnn(-c2ccccc2)n1 (stereo unspecified),1.64%
2,[O-][S+](Cc1ccccc1Cl)c1nnc(-c2ccccc2)o1 (stereo unspecified),40.6%
3,O=[N+]([O-])c1ccc(C[S+]([O-])c2nnn(-c3ccccc3)n2)cc1 (stereo unspecified),1.64%
4,[O-][S+](Cc1cccc(Cl)c1)c1nnn(-c2ccccc2)n1 (stereo unspecified),1.64%
5,Cc1ccc(C[S+]([O-])c2nnc(-c3ccccc3)o2)cc1 (stereo unspecified),40.6%
6,COc1cc(C[S+]([O-])c2nnc(-c3ccccc3)o2)cc(OC)c1 (stereo unspecified),21.94%
7,[O-][S+](Cc1ccc(Cl)cc1)c1nc2ccccc2s1 (stereo unspecified),40.6%
8,[O-][S+](Cc1ccc(Cl)cc1)c1nnn(-c2ccccc2)n1 (stereo unspecified),1.64%
9,[O-][S+](Cc1ccc(Br)cc1)c1nnc(-c2ccccc2)o1 (stereo unspecified),21.94%
10,[O-][S+](Cc1ccccc1)c1nnc(-c2ccccc2)o1 (stereo unspecified),40.6%
11,COc1ccc(C[S+]([O-])c2nnc(-c3ccccc3)o2)cc1 (stereo unspecified),21.94%
12,COc1cccc(C[S+]([O-])c2nnn(-c3ccccc3)n2)c1 (stereo unspecified),1.64%
13,[O-][S+](Cc1ccc(Br)cc1)c1nnn(-c2ccccc2)n1 (stereo unspecified),1.64%
14,[O-][S+](Cc1ccc2c(O)cccc2c1)c1nnn(-c2ccccc2)n1 (stereo unspecified),1.64%
15,[O-][S+](Cc1ccc(F)cc1)c1nnc(-c2ccccc2)o1 (stereo unspecified),23.17%
16,[O-][S+](Cc1ccc2c(O)cccc2c1)c1nnc(-c2ccccc2)o1 (stereo unspecified),40.88%
17,[O-][S+](Cc1ccc(C(F)(F)F)cc1)c1nnc(-c2ccccc2)o1 (stereo unspecified),21.94%
18,Cc1ccc(C[S+]([O-])c2nnn(-c3ccccc3)n2)cc1 (stereo unspecified),1.64%
19,[O-][S+](Cc1ccccc1Cl)c1nnn(-c2ccccc2)n1 (stereo unspecified),1.64%
20,[O-][S+](Cc1ccccc1)c1nnn(-c2ccccc2)n1 (stereo unspecified),1.64%
21,[O-][S+](Cc1cccc(Cl)c1)c1nnc(-c2ccccc2)o1 (stereo unspecified),40.6%
22,[O-][S+](Cc1ccc(F)cc1)c1nnn(-c2ccccc2)n1 (stereo unspecified),1.64%
23,COc1cccc(C[S+]([O-])c2nnc(-c3ccccc3)o2)c1 (stereo unspecified),21.94%
24,Clc1ccc(SSc2nc3ccccc3s2)cc1,40.6%
25,O=[N+]([O-])c1ccc(C[S+]([O-])c2nnc(-c3ccccc3)o2)cc1 (stereo unspecified),40.6%

# System: Pseudomonas aeruginosa
# Assay: Antibacterial activity against Pseudomonas aeruginosa ATCC 15442 assessed as reduction in bacterial cell growth incubated for 24 hrs by two fold serial microdilution method
# Assay type: functional
# Conditions: not given
row,SMILES,MIC
1,NCCCCCCCCCCCCNc1ccnc2cc(Cl)ccc12,> 2 µM
2,NCCCCCCCCCCCCNc1ccnc2cc(C(F)(F)F)ccc12,> 2 µM
3,CC(C)NCCCCCCCCNc1ccnc2cc(Cl)ccc12,> 2 µM
4,Clc1ccc2c(NCCCCCCCCNCCc3ccccc3)ccnc2c1,> 2 µM
5,CN(C)CCCCCCCCNc1ccnc2cc(Cl)ccc12,> 2 µM
6,Clc1ccc2c(NCCCCCCNCc3ccccc3)ccnc2c1,> 2 µM
7,Clc1ccc2c(NCCCCCCCCNCc3ccccc3Cl)ccnc2c1,> 2 µM
8,Fc1ccc(CNCCCCCCCCNc2ccnc3cc(Cl)ccc23)cc1,> 2 µM
9,Clc1cccc(CNCCCCCCCCNc2ccnc3cc(Cl)ccc23)c1,> 2 µM
10,Fc1cccc(CNCCCCCCCCNc2ccnc3cc(Cl)ccc23)c1,> 2 µM
11,Clc1ccc2c(NCCCCCCCCCCCCNCc3ccccc3)ccnc2c1,> 2 µM
12,Clc1ccc(CNCCCCCCCCNc2ccnc3cc(Cl)ccc23)cc1,> 2 µM
13,Clc1ccc2c(NCCCCCCNCCc3ccccc3)ccnc2c1,> 2 µM
14,[N-]=[N+]=Nc1ccc(CNCCCCCCCCNc2ccnc3cc(Cl)ccc23)cc1,> 2 µM
15,Clc1ccc2c(NCCCCCCCCNCc3ccccc3)ccnc2c1,> 2 µM
